Article PMC3527569, “Anti-Inflammatory and Vasoprotective Activity of a Retroviral-Derived Peptide, Homologous to Human Endogenous Retroviruses: Endothelial Cell Effects” (PLoS ONE, 2012)
“Also recorded” adds a separate entry of the source. Where no end group is shown, it is not given here.

How the values were obtained:
[1] = tested on: inflammatory accumulation of monocytes/macrophages; assay: Mouse NaIO4-induced inflammatory peritonitis model; type: in vivo, mouse (CD-1); settings: monocyte/macrophage accumulation at 48 h; for Dose Achieving Maximum Inhibition (nmoles) / Dose Achieving Maximum Inhibition (µg): CD-1 mice, agent s.c. 24 h before i.p. NaIO4; for Maximum Inhibition (%): groups of five CD-1 mice, agent s.c. 24 h before i.p. NaIO4 (5 mM, 1.0 ml), one experiment; for IC50 (nmoles) / IC50 (µg): in vivo dose per mouse, s.c. 24 h before i.p. NaIO4
Description: Effects of test compounds on the inflammatory accumulation of monocytes/macrophages or neutrophils in vivo were determined using a mouse peritonitis model. Briefly, groups of five 6–8 week old CD-1 outbred mice (Charles River; Raleigh, NC) were injected intraperitoneally (i.p.) with 1.0 ml of a sterile inflammatory stimulus (NaIO4; 5 mM in sterile isotonic saline; Sigma; St. Louis, MO). This procedure results in a dramatic accumulation of neutrophils in the peritoneal cavity which peaks at 6–8 h post injection, followed by an accumulation of monocytes/macrophages which peaks at 48–72 h post injection. Mice were euthanized by CO2 asphyxiation at either 6 h (for neutrophils) or 48 h (for monocyte/macrophages), the peritoneal cavities lavaged with two 10-ml washes of heparinized (10 u/ml; Sigma; St. Louis, MO) HBSS containing 0.1% (w/v) BSA, the washes pooled, and total and differential cells counts determined for each pooled cell suspension. Each test material was evaluated in a group of five mice, each of which was injected subcutaneously in the thigh with 0.2 ml of test material in HBSS 24 h prior to the i.p. injection of the inflammatory stimulus.

carrageenan-induced DIC = assay: Mouse carrageenan-induced DIC model, lethality; type: in vivo, mouse (CD-1); settings: data not shown
Description: Groups of 10 male CD-1 mice were injected i.p. with 0.25 ml of either vehicle (PBS) or peptide in vehicle at varying times prior to the i.p. injection of 1.0 ml of carrageenan (0.45% [w/v] in PBS; Sigma). In experiments where serum cytokine levels were determined, groups of 5 mice were euthanized at 1-, 2-, 4-, 8-, and 24-h post injection of carrageenan, blood collected by cardiac puncture into heparinized syringes, and the resultant plasma stored at −80°C until assayed by ELISA. […] At 1-, 2-, 4-, and 24-h post injection of carrageenan, five mice from each group were euthanized and heparinized blood samples collected from the heart using heparinized syringes for subsequent determinations of WBC (white blood cell) counts, RBC (red blood cell) counts, or PLT (platelet) counts.

systolic blood pressure = assay: SHR rat hypertension model (tail cuff); type: in vivo; settings: 100 mg/kg orally (gavage), groups of 3 SHR rats, tail cuff, vs 0 h value
Description: As part of a general pharmacological screen, MN10021 was evaluated in a rat model of hypertension by MDS-PanLabs (Bothell, WA). […] Blood pressure measurements were made by tail cuff at 1, 2, and 4 h post administration of test compounds. A decrease of ≥10% of the baseline systolic blood pressure is considered significant in this assay.

[2] = qualitative ranking of the three peptides
[3] = tested on: iNOS (inducible nitric oxide synthase) mRNA; assay: RT-PCR of iNOS mRNA in HUVEC; type: cell-based, human; settings: for induction of mRNA for iNOS in HUVEC: 50 µM peptide, 3 h, 37°C, quiescent HUVEC, RT-PCR
Description: (§1) Cells were cultured with various concentrations of test materials, either with or without stimulus, for varying times. The cells were collected, washed and total RNA isolated using the RNeasy Mini Kit (Qiagen; Valencia, CA). Following isolation the RNA was treated with 7 units of DNase I according to the RNase-Free DNase Set (Qiagen; Valencia, CA) protocol. Using these procedures we usually obtained ∼50 µg of total RNA/10^7 cells. cDNA was prepared from the isolated mRNAs and RT-PCR performed on the target cytokines/chemokines/growth factors using appropriate primer pairs and a control primer pair for β-actin (all from R & D Systems; Minneapolis, MN). RT-PCR was generally performed for 30 cycles for β-actin and 35–45 cycles for iNOS and VEGF.

[4] = tested on: nitrate in HUVEC supernatants; assay: NO release (nitrate as nitrite) from HUVEC; type: cell-based, human; settings: 50 µM peptide
Description: HUVEC were grown to 80–90% confluence in 12-well tissue culture plates using defined media provided by Cambrex and supplemented with 10% FBS. Triplicate wells were incubated with either media alone or media containing 50 µM of the indicated peptide. Supernatant samples were removed from each well at 6 h and 24 h post peptide addition and assayed for NO release as measured by the presence of nitrate (converted to nitrite) using a kit supplied by Oxford Biomedical Research (Rochester Hill, MI) according to the manufacturer's instructions.

dengue virus = assay: Vascular leak in liver of mice injected with dengue virus; parameters: species or system mouse; settings: 1 µg intraperitoneal; dengue virus i.v.; preliminary in vivo studies
HUVEC = assay: Staurosporine-induced apoptosis in HUVEC (Cell Death Detection ELISA); type: cell-based, human; settings: for protection against staurosporine-induced apoptosis: 50 µM peptide 3 h before staurosporine (500 nM), measured 18 h after staurosporine (Figure 11B)
Description: Apoptosis was measured in HUVEC using the Cell Death Detection ELISA^PLUS kit (Roche Diagnostics; Indianapolis, IN) according to the manufacturer's instructions. This assay is based on a quantitative sandwich-enzyme-immunoassay using mouse monoclonal antibodies directed against both DNA and histones, respectively. It allows the specific determination of mono- and oligonucleosomes in the cytoplasmic fraction of cell lysates (apoptosis) and in the supernatant of dying cells (necrosis). The apoptotic index (AI) was calculated as
where treatment refers to use of a known apoptosis- or necrosis-inducing agent (staurosporine, TNF-α).

iNOS mRNA = iNOS mRNA induction in HUASMC; type: cell-based, human; settings: compared with MN10021
Description: as §1

[5] = tested on: endothelial nitric oxide synthase (eNOS) mRNA; assay: RT-PCR of eNOS mRNA in HUVEC; type: cell-based, human; settings: data not shown
Description: as §1

[6] = tested on: human monocyte chemotactic responses; parameters: method as in PMID 1634759, PMID 1534759; settings: cited from earlier work
inflammation [7] = tested on: inflammation; parameters: method as in earlier work; settings: cited from earlier work
lymphocyte proliferation = tested on: lymphocyte proliferation; parameters: method as in PMID 1634759, PMID 1534759; settings: cited from earlier work
inflammation [8] = tested on: inflammation; parameters: method as in earlier work; settings: cited from earlier work; remark: listed apart in the source

Compound: CC(=O)Nc1ccc(O)cc1 [Acetaminophen, acetaminophen]
- Dose Achieving Maximum Inhibition (nmoles) [1]: 6614 nmol
- Dose Achieving Maximum Inhibition (µg) [1]: 1000 µg
- Maximum Inhibition (%) [1]: 95%
- IC50 (nmoles) [1]: 132 nmol
- IC50 (µg) [1]: 20 µg
- ability to protect mice in DIC model (carrageenan-induced DIC): no success

Compound: C[C@@H]1C[C@H]2[C@@H]3CCC4=CC(=O)C=C[C@]4(C)[C@@]3(F)[C@@H](O)C[C@]2(C)[C@@]1(O)C(=O)CO [Dexamethasone]
- Dose Achieving Maximum Inhibition (nmoles) [1]: 204 nmol
- Dose Achieving Maximum Inhibition (µg) [1]: 80 µg
- Maximum Inhibition (%) [1]: 75%
- ability to protect mice in DIC model (carrageenan-induced DIC): no success

Compound: O=C(O)Cc1ccccc1Nc1c(Cl)cccc1Cl [Diclofenac, diclofenac]
- Dose Achieving Maximum Inhibition (nmoles) [1]: 314 nmol
- Dose Achieving Maximum Inhibition (µg) [1]: 100 µg
- Maximum Inhibition (%) [1]: 90%
- IC50 (nmoles) [1]: 16 nmol
- IC50 (µg) [1]: 5 µg
- ability to protect mice in DIC model (carrageenan-induced DIC): no success

Compound: C[C@](N)(Cc1ccc(O)c(O)c1)C(=O)O [L-methyldopa, reference compound]
- decrease in blood pressure at 1 h (systolic blood pressure): 16%
- decrease in blood pressure at 2 h (systolic blood pressure): 23%
- decrease in blood pressure at 4 h (systolic blood pressure): 28%

Compound: N=C(N)NN [aminoguanidine]
- ability to protect mice in DIC model (carrageenan-induced DIC): no success

Compound: COc1ccc2c(c1)c(CC(=O)O)c(C)n2C(=O)c1ccc(Cl)cc1 [indomethacin]
- ability to protect mice in DIC model (carrageenan-induced DIC): no success

Compound: COc1ccc2cc([C@H](C)C(=O)O)ccc2c1 [naproxen]
- ability to protect mice in DIC model (carrageenan-induced DIC): no success

Compound: CCN(CC)CCCC(C)Nc1c2ccc(Cl)cc2nc2ccc(OC)cc12 (stereo not shown) [quinacrine]
- ability to protect mice in DIC model (carrageenan-induced DIC): no success

Compound: CN[C@@H]1C[C@H]2O[C@@](C)([C@@H]1OC)n1c3ccccc3c3c4c(c5c6ccccc6n2c5c31)C(=O)NC4 [staurosporine]
- ability to protect mice in DIC model (carrageenan-induced DIC): no success

Compound: Ac-GLDLLFLK-NH2 [DUK0005]
- relative solubility among DUK0004, DUK0005, DUK0006 [2]: intermediate
- induction of mRNA for iNOS in HUVEC [3]: most effective; also recorded: as effective as MN10021
- nitrate release (as measured by nitrite assay) from HUVEC ([4]; 6 h or ON): induced nitrate release
- effect on vascular leak in the liver of dengue virus-injected mice (dengue virus): inhibit the vascular leak
- protection against staurosporine-induced apoptosis (HUVEC): significant protection
- effect of L-NAME pretreatment on protective effect against staurosporine-induced apoptosis (HUVEC; 2 mM L-NAME 5 h, then 50 µM peptide 3 h, staurosporine 500 nM ON (Figure 12)): no effect
- maximal protection against staurosporine-induced apoptosis (HUVEC; peptide added 3 h before staurosporine, up to 50 µM peptide, quadruplicate wells (Figure 10A, 10C)): ~40%
- induction of iNOS mRNA in HUASMC (iNOS mRNA): as effective as MN10021
- effect on expression of mRNA for eNOS [5]: Neither MN10021 nor DUK0005 affected

Compound: Ac-GLDLLYLK-NH2 [DUK0007]
- induction of mRNA for iNOS in HUVEC [3]: does not induce iNOS
- effect on induction of iNOS by DUK005 when combined 1:1 ([3]; HUVEC, data not shown): inhibits the induction of iNOS
- nitrate release, percent of MN10021 ([4]; 6 h and ON incubations): ≤ 25%
- protection against staurosporine-induced apoptosis (HUVEC): no protective effective

Compound: GLDLLFLK [DUK0001]
- induction of mRNA for iNOS in HUVEC [3]: weak induction

Compound: GLDLLFLK-NH2 [DUK0006]
- relative solubility among DUK0004, DUK0005, DUK0006 [2]: most soluble
- induction of mRNA for iNOS in HUVEC [3]: comparable

Compound: LDLLFL [hexapeptide corresponding to the central six amino acids of DUK0005, studied by other investigators]
- effect on in vitro human monocyte chemotactic responses [6]: inhibited
- anti-inflammatory activity in guinea pigs (inflammation [7]): did not find this hexapeptide to be anti-inflammatory
- effect on ligand (CD3) and interleukin-2 (IL-2)-induced lymphocyte proliferation (lymphocyte proliferation): inhibited
- anti-inflammatory activity in mice (inflammation [8]): did not find this hexapeptide to be anti-inflammatory

Compound: acetyl-GLDLLFLK-acetyl [DUK0004]
- relative solubility among DUK0004, DUK0005, DUK0006 [2]: least soluble
- induction of mRNA for iNOS in HUVEC [3]: comparable
